The text below walks through data of patent US11980598B2, “N-(2-(substituted-naphth-1-yl)ethyl) substituted amide compound, preparation and uses thereof” (BEIJING GREATWAY PHARMACEUTICAL TECHNOLOGY CO., LTD., priority 2017, dated 2024).

As a reminder, the IC50 is the concentration that inhibits the measured activity by half. A low value points to greater potency in that assay.

For data set [1] the following is noted: background statement; cited from earlier work.
For data set [2] the following is noted: cited from earlier work.
In data set [3] the target is CYP1A2 (Homo sapiens (Human), UniProt P05177). The conditions noted are these: cited from earlier work.
The test system of data set [4] is SD rats. The data set is described as follows: Anxiety behavior model of repeatedly administrated rat: Vogel drinking conflict test. In kind it is in vivo. The conditions noted are these: D18, within 3 minutes. The method, then: The requirements for test animals, drug formulation and administration were the same as those of the rat chronic mild stress model.
Instruments: Vogel drinking anxiety device for rat and O-maze device for rat were manufactured by Shanghai XinRuan Company. The rat feeding chamber was a home-made white plastic box (60×45×25 cm).
The rats were administrated continuously by i.g. once a day. A novelty-suppressed feeding test, a Vogel drinking conflict test, and an O-maze test were performed on a different day, respectively. Each behavior test was performed at 9:00-12:00, and the administration time was 16:00-17:00. The test process was as follows: D12, novelty-suppressed feeding test (animals were fasted for 48 hours before the test); D18, Vogel drinking conflict test (animals were banned from water for 48 hours before the test); D21, O-maze test.
The Vogel drinking anxiety device for rat connected a drinking tube of a water bottle, an electric grid and a current loop of a controller through the animal body when rat drank water. The controller can automatically record the number of times the animal drank water and can deliver an electric shock to foot sole. The rat was individually placed in the test chamber after 48 hours of water deprivation. When the animal drank 20 times in the test chamber, the controller started timing for 3 minutes, and every 20 times the rat drank, one electric shock to foot sole was delivered (0.35 mA for 2 s). The device automatically recorded the number of times the rat drank water with electric shock within 3 minutes.

The target in data set [5] is human MT2 receptor membrane protein (Homo sapiens (Human), UniProt P49286). Kind of data set: MT2 receptor binding test ([3H]-Melotonin competition). The procedure: (§1) The receptors included a MT1/MT2 receptor and a 5-HT2C receptor. The test was divided into two parts: prescreening and rescreening. The results of prescreening were expressed as the percentage of binding, and the results of rescreening were expressed as the IC50 value (in M, i.e., mol/L).
(§2) (3) Tris-HCl buffer formulation: 50 mM Tris-HCl Buffer, 1 mM EDTA, 5 mM MgCl2, 0.1% NaN3, and then a certain proportion of PMSF was added to make pH 7.4.
(§3) (4) The example compound to be tested was dissolved in DMSO and formulated as a stock solution of 10^−2 M, and then diluted with distilled water to a concentration gradient of […]. The prescreening of the MT receptor binding test was performed at the concentration of 10^−5 M; the prescreening of the 5-HT2C receptor binding test was performed at the concentrations of 10^−5 and 10^−7 M.
(§4) The statistical analysis was performed using GraphPad Prism 5.0 software. The formula for receptor binding test was: inhibition (%)=[(total CPM of binding−CPM of tube with drug)/(total CPM of binding−non-specific CPM)]×100%, wherein CPM was count of a radioactive intensity.
(§5) 10 μL of receptor membrane protein MT1 or MT2 was added to all the tubes. In non-specific binding tubes, 50 μL of a corresponding unlabeled ligand Ago at a concentration of 10^4 M was added to a final concentration of 10 μM, and pre-reacted for 30 minutes. In test tubes, 30 μL of test drug (MT1: a concentration of 10^4-10^−10 M, MT2: a concentration of […]) was added, respectively; all tubes were added with 40 μL [^3H]-Melotonin, respectively. […] The filter paper was taken out and dried by baking, and then placed in a scintillation bottle. 1 mL of the scintillation liquid was added, and the radioactive intensity was measured by a liquid scintillation counter.

The target in data set [6] is human MT1 receptor membrane protein (Homo sapiens (Human), UniProt P48039). Kind of data set: MT1 receptor binding test ([3H]-Melotonin competition). The procedure: as §1, §2, §3, §4, §5
Chain of human MT1 receptor membrane protein (P48039 whole entry): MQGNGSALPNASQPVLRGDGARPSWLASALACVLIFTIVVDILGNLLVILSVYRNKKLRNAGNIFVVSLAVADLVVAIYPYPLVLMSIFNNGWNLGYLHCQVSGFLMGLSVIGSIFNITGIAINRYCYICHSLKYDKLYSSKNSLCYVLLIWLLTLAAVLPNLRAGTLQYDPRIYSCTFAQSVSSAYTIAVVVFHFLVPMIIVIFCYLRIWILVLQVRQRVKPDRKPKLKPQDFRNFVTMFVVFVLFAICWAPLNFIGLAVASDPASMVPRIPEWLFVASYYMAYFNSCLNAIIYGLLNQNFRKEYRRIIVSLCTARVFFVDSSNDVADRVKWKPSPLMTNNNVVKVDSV

Chain of human MT2 receptor membrane protein (P49286 whole entry): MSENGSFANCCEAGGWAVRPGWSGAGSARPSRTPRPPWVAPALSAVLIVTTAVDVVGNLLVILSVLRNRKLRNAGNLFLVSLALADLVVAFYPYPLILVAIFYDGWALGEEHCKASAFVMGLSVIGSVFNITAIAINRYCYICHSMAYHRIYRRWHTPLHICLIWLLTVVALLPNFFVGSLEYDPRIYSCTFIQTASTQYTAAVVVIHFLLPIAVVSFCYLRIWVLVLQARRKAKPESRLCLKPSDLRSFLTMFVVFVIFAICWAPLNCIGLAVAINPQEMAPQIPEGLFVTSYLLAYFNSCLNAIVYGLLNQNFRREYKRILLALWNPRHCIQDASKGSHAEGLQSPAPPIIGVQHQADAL
Chain of CYP1A2 (P05177 whole entry): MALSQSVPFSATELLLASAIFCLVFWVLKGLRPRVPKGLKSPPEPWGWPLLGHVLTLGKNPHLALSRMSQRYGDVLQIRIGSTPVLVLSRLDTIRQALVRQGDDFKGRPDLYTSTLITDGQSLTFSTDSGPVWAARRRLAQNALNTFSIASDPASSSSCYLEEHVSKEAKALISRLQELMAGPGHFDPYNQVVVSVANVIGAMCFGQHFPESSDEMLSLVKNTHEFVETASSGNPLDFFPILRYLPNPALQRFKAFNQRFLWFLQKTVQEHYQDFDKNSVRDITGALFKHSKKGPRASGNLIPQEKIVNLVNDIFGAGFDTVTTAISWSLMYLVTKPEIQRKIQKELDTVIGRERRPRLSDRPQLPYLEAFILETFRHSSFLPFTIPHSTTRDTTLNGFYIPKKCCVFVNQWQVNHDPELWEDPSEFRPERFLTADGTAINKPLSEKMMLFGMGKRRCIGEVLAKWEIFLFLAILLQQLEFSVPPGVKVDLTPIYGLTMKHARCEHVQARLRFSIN

Take `COc1ccc2cccc(CCNC(C)=O)c2c1` [Agomelatine, reference compound]: in data set [1], the absolute bioavailability entry is given as “below 5%” and the oral absorption result is reported as “over 80%”. The “patients with an increase in ALT/AST (three times above the normal upper limit)” value in data set [2] is reported as “more than 1%”. In addition, the “share metabolized by CYP1A2” value in data set [3] is listed as “about 90%”.
As to `[2H]C([2H])([2H])Oc1cc2c(CCNC(C)=O)cccc2cc1Cl` [Example 1, N-(2-(6-chloro-7-deuteromethoxy-naphthalen-1-yl)ethyl)acetamide], the “Number of times drinking water with electric shock (s)” value in data set [4] (5 mg/kg i.g. once a day) is 76 ± 11 number of licks (count); in data set [4] (10 mg/kg i.g. once a day), 159 ± 14 number of licks (count); in data set [4] (20 mg/kg i.g. once a day) it was 172 ± 25 number of licks (count); in data set [4] (40 mg/kg i.g. once a day), 213 ± 20 number of licks (count). In addition, in data set [5] (prescreening, 10^−5 M), the “MT2 binding ratio (I %)” value was 98%. Further, the IC50 in data set [5] (rescreening) is 0.72 ± 0.13 nM; in data set [6] (rescreening) it was 0.45 ± 0.26 nM. Moreover, the “MT1 binding ratio (I %)” value in data set [6] (prescreening, 10^−5 M) is reported as 84%.
